# In PubChem BioAssay (NCI):
#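 Five compound concentrations were applied to cells in 96-well plates for 48 hours; endpoints were derived by simple linear interpolation of the resulting dose-response curve. TGI: concentration producing complete growth inhibition.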
# Columns and labels:
# Test in all cases: NCI-60 cell line screen, 48 h
# OVCAR-5 ovarian = test system: OVCAR-5 ovarian
# U251 CNS = test system: U251 CNS
# SF-268 CNS = test system: SF-268 CNS
# MOLT-4 leukemia = test system: MOLT-4 leukemia
# HL-60(TB) leukemia = test system: HL-60(TB) leukemia
# KM12 colon = test system: KM12 colon
# SNB-75 CNS = test system: SNB-75 CNS
# HOP-62 NSCLC = test system: HOP-62 NSCLC
# IGROV1 ovarian = test system: IGROV1 ovarian
# K-562 leukemia = test system: K-562 leukemia
# MDA-MB-435 = test system: MDA-MB-435
# HCC-2998 colon = test system: HCC-2998 colon
# A498 renal = test system: A498 renal
# SNB-19 CNS = test system: SNB-19 CNS
# TK-10 renal = test system: TK-10 renal
# SN12C renal = test system: SN12C renal
# SK-MEL-5 melanoma = test system: SK-MEL-5 melanoma
# HOP-92 NSCLC = test system: HOP-92 NSCLC
# A549 NSCLC = test system: A549 NSCLC
# SF-539 CNS = test system: SF-539 CNS
SMILES,TGI (OVCAR-5 ovarian),TGI (U251 CNS),TGI (SF-268 CNS),TGI (MOLT-4 leukemia),TGI (HL-60(TB) leukemia),TGI (KM12 colon),TGI (SNB-75 CNS),TGI (HOP-62 NSCLC),TGI (IGROV1 ovarian),TGI (K-562 leukemia),TGI (MDA-MB-435),TGI (HCC-2998 colon),TGI (A498 renal),TGI (SNB-19 CNS),TGI (TK-10 renal),TGI (SN12C renal),TGI (SK-MEL-5 melanoma),TGI (HOP-92 NSCLC),TGI (A549 NSCLC),TGI (SF-539 CNS)
CC(=O)OCC1OC(SC2=N/C(=C\c3cc4c(=O)c5ccccc5sc4s3)C(=O)N2c2ccccc2)C(OC(C)=O)C(OC(C)=O)C1OC(C)=O (stereo not given),> 100 µM,62.8 µM,> 100 µM,54.4 µM,53.3 µM,> 100 µM,> 100 µM,> 100 µM,> 100 µM,> 100 µM,> 100 µM,> 100 µM,> 100 µM,> 100 µM,> 100 µM,> 100 µM,> 100 µM,,,
CCOC(=O)C1=[N+]([O-])OC2=C(O)CCCC21 (stereo not given),> 100 µM,> 100 µM,> 100 µM,> 100 µM,,> 100 µM,> 100 µM,> 100 µM,> 100 µM,> 100 µM,> 100 µM,> 100 µM,> 100 µM,> 100 µM,> 100 µM,> 100 µM,> 100 µM,> 100 µM,> 100 µM,
COc1ccc(/C=C2\NC(=S)N(CN3CCCCC3)C2=O)cc1,> 100 µM,> 100 µM,50.4 µM,> 100 µM,,> 100 µM,79 µM,> 100 µM,> 100 µM,> 100 µM,> 100 µM,,> 100 µM,> 100 µM,> 100 µM,> 100 µM,> 100 µM,> 100 µM,> 100 µM,
COc1cccc(-c2c(C#N)c(N)nc3c2CCS(=O)(=O)c2ccc(C)cc2-3)c1,> 100 µM,> 100 µM,> 100 µM,,> 100 µM,> 100 µM,> 100 µM,> 100 µM,> 100 µM,> 100 µM,> 100 µM,> 100 µM,> 100 µM,> 100 µM,> 100 µM,> 100 µM,> 100 µM,> 100 µM,> 100 µM,
NC(=O)NNc1nc2ccccc2c(=O)n1NC(=O)C(=O)Nc1ccc(Cl)cc1Cl,> 100 µM,> 100 µM,> 100 µM,> 100 µM,,> 100 µM,> 100 µM,> 100 µM,> 100 µM,> 100 µM,> 100 µM,> 100 µM,> 100 µM,> 100 µM,> 100 µM,> 100 µM,> 100 µM,> 100 µM,> 100 µM,> 100 µM
O=[N+]([O-])c1ccc(-c2csc3nc(-c4ccccc4)nn23)cc1,> 100 µM,> 100 µM,> 100 µM,> 100 µM,> 100 µM,> 100 µM,> 100 µM,> 100 µM,> 100 µM,> 100 µM,> 100 µM,> 100 µM,> 100 µM,> 100 µM,> 100 µM,> 100 µM,> 100 µM,> 100 µM,> 100 µM,
CC#CC#C/C=C1/O[C@]2(CCC(OC(C)=O)CO2)[C@@H]2O[C@H]12 (stereo not given in full),71.2 µM,39.1 µM,> 100 µM,57 µM,48.7 µM,47.1 µM,> 100 µM,> 100 µM,> 100 µM,> 100 µM,81.5 µM,33 µM,45.7 µM,> 100 µM,> 100 µM,51.9 µM,,92.9 µM,> 100 µM,
COc1ccc2oc(=N)c(C(=O)NCc3ccccc3)cc2c1,> 100 µM,37.2 µM,52.5 µM,> 100 µM,> 100 µM,29.6 µM,35 µM,55.8 µM,60.8 µM,86.8 µM,34.2 µM,,35.1 µM,> 100 µM,> 100 µM,> 100 µM,> 100 µM,,> 100 µM,56.6 µM
NC(=O)N=C(N(Cc1ccccc1)Cc1ccccc1)N(Cc1ccccc1)Cc1ccccc1,> 100 µM,> 63.7 µM,> 100 µM,> 100 µM,,> 100 µM,81.8 µM,> 65.8 µM,> 100 µM,> 100 µM,> 100 µM,> 100 µM,> 100 µM,> 100 µM,> 100 µM,> 100 µM,> 100 µM,> 64.8 µM,> 100 µM,> 100 µM
Cc1nc2cccc(F)c2c(=O)n1C1CCCCNC1=O (stereo not given),> 10 µM,> 10 µM,> 10 µM,> 10 µM,> 10 µM,> 10 µM,> 10 µM,> 10 µM,> 10 µM,> 10 µM,> 10 µM,> 10 µM,,> 10 µM,> 10 µM,> 10 µM,> 10 µM,> 10 µM,> 10 µM,> 10 µM
O=C(Cc1ccccc1)NNc1nc(NNC(=O)c2ccncc2)nc(Nc2ccc([N+](=O)[O-])cc2)n1,> 10 µM,> 10 µM,> 10 µM,> 10 µM,,> 10 µM,> 10 µM,> 10 µM,> 10 µM,> 10 µM,> 10 µM,> 10 µM,> 10 µM,> 10 µM,> 10 µM,> 10 µM,> 10 µM,> 10 µM,> 10 µM,> 10 µM
N#CC12C(=O)N3C(=NC(c4ccccc4)NC3c3ccccc3)C1(C#N)C(c1ccccc1)NC1=C2CCC1 (stereo not given),> 100 µM,> 100 µM,> 100 µM,> 100 µM,> 100 µM,> 100 µM,> 100 µM,> 100 µM,> 100 µM,> 100 µM,> 100 µM,> 100 µM,> 100 µM,> 100 µM,> 100 µM,> 100 µM,> 100 µM,> 100 µM,> 100 µM,
